Reference: US7279498B2, “Substituted aryl amides as IP antagonists” (Roche Palo Alto LLC, priority 2003, dated 2007)

Columns and labels:
[1] = target: T1, rat prostanoid IP receptor (Rattus norvegicus, UniProt P43253); assay: IP receptor activity assay: cyclic AMP accumulation (cAMP Flashplate) in CHO cells; assay type: cell-based; settings: CHO cells expressing the rat prostanoid IP receptor
T1 construct: expressed in transfected cells; host or cells: Chinese Hamster Ovary cells (kept under geneticin)
T1 sequence (P43253 whole entry): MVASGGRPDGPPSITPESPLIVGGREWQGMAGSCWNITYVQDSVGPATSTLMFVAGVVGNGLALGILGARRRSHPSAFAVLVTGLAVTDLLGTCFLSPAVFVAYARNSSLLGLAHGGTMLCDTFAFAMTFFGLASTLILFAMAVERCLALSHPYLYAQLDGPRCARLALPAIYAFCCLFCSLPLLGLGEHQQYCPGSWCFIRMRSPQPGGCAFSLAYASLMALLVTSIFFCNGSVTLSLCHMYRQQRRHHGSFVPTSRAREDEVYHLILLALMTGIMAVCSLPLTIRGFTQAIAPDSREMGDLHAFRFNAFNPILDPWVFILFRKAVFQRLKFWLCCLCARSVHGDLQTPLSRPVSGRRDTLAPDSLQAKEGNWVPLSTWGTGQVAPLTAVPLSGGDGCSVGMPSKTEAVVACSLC
Protocol: The IP receptor agonist potency of compounds of this invention in vitro was determined by measuring the agonist-mediated cyclic AMP accumulation in an assay utilizing Chinese Hamster Ovary cells expressing the rat prostanoid IP receptor. Cyclic AMP levels were determined using a commercially available Adenylate Cyclase cAMP Flashplate Assay.
Chinese Hamster Ovary cells expressing the rat prostanoid IP receptor were maintained in Ham's Mixture with 10% fetal bovine serum, […] geneticin in 5% carbon dioxide ([…]). Cells were harvested at approximately 90% confluency using Dulbecco's Phosphate-Buffered saline containing 2 mM EDTA, and washed once at 1000×g and resuspended in Wash Buffer. A sample was aliquoted for protein determination. The cell suspension was centrifuged at 1000×g and adjusted to 110–140 E+3 cells/50 μl in the “Stimulation and Detection Buffer” from the assay kit.
The test compounds or vehicle were incubated with 50 μl cells (110–140 E+3 cells) for 5 minutes at room temperature. After the incubation, 100 μl lysis/tracer solution was added to the wells and the radioactivity counted on a Packard Topcount microplate scintillation counter after overnight incubation. The amount of radioactive cAMP bound to the antibody is inversely proportional to the concentration of added non-radioactive cAMP. […]

hERG potassium channel = target: T2, hERG potassium channel (Homo sapiens, UniProt Q12809); assay: hERG Potassium Channel Pharmacology Screening (whole-cell patch-clamp, CHO-K1 cells); assay type: cell-based; settings: CHO-K1 cells expressing recombinant human hERG channel, read-out: hERG outward current inhibition percentage
T2 construct: expressed in transfected cells; host or cells: CHO-K1 cells
T2 sequence (Q12809 whole entry): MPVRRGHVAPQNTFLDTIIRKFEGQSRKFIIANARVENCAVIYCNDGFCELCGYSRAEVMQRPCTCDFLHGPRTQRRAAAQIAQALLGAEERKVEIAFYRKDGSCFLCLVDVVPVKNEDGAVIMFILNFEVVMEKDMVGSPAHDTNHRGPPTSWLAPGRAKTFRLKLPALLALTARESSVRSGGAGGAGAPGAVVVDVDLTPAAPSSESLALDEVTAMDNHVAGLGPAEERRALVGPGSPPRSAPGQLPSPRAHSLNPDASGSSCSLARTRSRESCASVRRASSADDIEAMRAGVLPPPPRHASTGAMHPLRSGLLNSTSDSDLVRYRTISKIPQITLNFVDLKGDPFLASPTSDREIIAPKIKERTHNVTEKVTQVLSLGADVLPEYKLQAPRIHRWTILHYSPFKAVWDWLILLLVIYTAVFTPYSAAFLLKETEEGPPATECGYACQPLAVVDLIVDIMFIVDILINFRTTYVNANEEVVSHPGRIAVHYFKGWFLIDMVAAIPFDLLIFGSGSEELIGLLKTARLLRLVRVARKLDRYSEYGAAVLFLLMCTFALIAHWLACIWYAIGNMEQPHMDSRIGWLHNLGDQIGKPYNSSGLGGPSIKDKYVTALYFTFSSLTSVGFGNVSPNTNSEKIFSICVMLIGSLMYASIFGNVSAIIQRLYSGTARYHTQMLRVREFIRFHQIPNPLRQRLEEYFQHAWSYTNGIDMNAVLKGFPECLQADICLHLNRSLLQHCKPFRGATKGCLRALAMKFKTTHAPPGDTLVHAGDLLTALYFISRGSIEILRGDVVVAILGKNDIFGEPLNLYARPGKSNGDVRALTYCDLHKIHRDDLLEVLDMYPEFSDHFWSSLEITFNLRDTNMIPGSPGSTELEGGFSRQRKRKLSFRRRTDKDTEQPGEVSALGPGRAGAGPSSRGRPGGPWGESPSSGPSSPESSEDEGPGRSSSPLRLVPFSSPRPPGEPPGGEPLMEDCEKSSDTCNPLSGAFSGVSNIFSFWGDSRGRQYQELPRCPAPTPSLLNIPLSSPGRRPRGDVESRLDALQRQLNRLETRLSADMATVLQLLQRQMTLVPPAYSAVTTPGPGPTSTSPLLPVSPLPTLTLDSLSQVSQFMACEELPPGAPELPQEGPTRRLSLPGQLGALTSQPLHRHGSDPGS
Protocol: The effects of the subject compounds on recombinant hERG potassium channels expressed in CHO-K1 cells was determined according to the procedure reported by Hamill et al., 1981, Pflügers Arch., 391, 85–100
The following solutions were used to isolate potassium currents in cultured cell lines: extracellular (in mM), NaCl (150), KCl (4), HEPES (10), CaCl2 (1.2), MgCl2 (1), adjusted to pH 7.4 with NaOH; intracellular (in mM), KCl (140), HEPES (10), EGTA (5), MgCl2 (6), ATP-Na2 (5), adjusted to pH 7.2 with KOH.
Whole-cell patch-clamp methods were used to record potassium currents from CHO.K1 cells expressing the human hERG channel. Each cell was held at a negative holding potential of −80 mV. […] Peak tail current amplitudes at the different test potentials were measured to obtain the current-voltage relationship.
A second protocol was used to investigate the effects of compounds on hERG currents. […] Drugs were applied once a stable baseline has been recorded for 5 min. […]
Voltage-dependent potassium currents were recorded from single cells at room temperature (20–22° C.) using the whole-cell configuration of the patch-clamp technique. […]
The peak amplitude of outward currents are measured using Clampfit software to find peak amplitude. […]
Statistics were calculated using Microcal Origin and Prism software, and results were reported as mean+/−standard error of the mean. […]

Ki [1]: ~7.59 nM
Structure (SMILES): COc1ccc(C(=O)NCc2ccc(NC3=NCCN3)cc2)cc1 [compound 96, N-[4-(4,5-Dihydro-1H-imidazol-2-yl-amino)-benzyl]-4-methoxy-benzamide]
inhibition at 1 µM (hERG potassium channel; pH 7.4, at 1 uM): 4.3 ± 4.4%
inhibition at 10 µM (hERG potassium channel; pH 7.4, at 10 uM): 10.8 ± 7.2%
